# Assay results published in ChEMBL document CHEMBL1148158, “Antineoplastic Agents. 510. Isolation and structure of dolastatin 19 from the Gulf of California sea hare Dolabella auricularia” (2004).
# Assays:
# [1] = system: KM-20L2; test: Growth inhibition of human KM20L2 cells; format: functional
# [2] = system: MCF7; test: Growth inhibition of human MCF7 cells; format: functional
compound,measurement,setting,value
CO[C@@H]1[C@@H](O)[C@@H](OC)[C@H](O[C@@H]2C[C@]3(O)O[C@H](C[C@H](OC)/C=C(\C)C[C@@H](/C=C/C=C/Br)OC(=O)[C@H]3C)[C@H]2C)O[C@H]1C [DOLASTATIN 19],GI50,[1],0.76 µg/mL
same,GI50,[2],0.72 µg/mL
